Entries after “also recorded” stand apart in the source; their conditions may differ. Read-outs that look alike come from different tables or passages of the source.
What was measured:
Type in all cases: cell-based
[1] = tested on: HeyA8 OVCA cells; assay: In vitro scratch assay (cell migration); details: HeyA8, 25 mM or 50 mM artesunate, imaged days 0-2; DMSO vehicle closed gap within 2 days
Description: The effects of pathway inhibition on OVCA cell metastatic properties were investigated using the in vitro scratch assay. HeyA8 OVCA cells were maintained in RPMI 1640 medium (Invitrogen) supplemented with 10% fetal bovine serum (FBS; Fisher Scientific, Pittsburgh, Pa.), 1% sodiumpyruvate, 1% penicillin/streptomycin (Cellgro, Manassas, Va.), and 1% nonessential amino acids (HyClone, Hudson, N.H.). Monolayers, 75-80% confluent, were cultured in serum-free media for 4 hours and then mechanically disrupted to create a wound using a 1 mL pipette tip. Culture plates were washed twice with serum-free media to remove floating cells and then incubated with media containing 10% FBS and either vehicle (dimethylsulfoxide [DMSO]) or drug. The DMSO concentration was maintained below 0.5% so as not to influence cell growth or migration. The underside of the culture plate by the wound area was marked with a Sharpie for reference, and wounds were imaged by phase-contrast microscopy on days 0, 1, and 2.

[2] = tested on: five OVCA cell lines; assay: MTS assay, summary over five OVCA cell lines; details: for IC50: five OVCA cell lines, 72 hours, MTS
Text: (§1) Ovarian cancer cell lines were either obtained from the European Collection of Cell Cultures, Salisbury, England (A2780S), or were kind gifts from Dr. Patricia Kruk, Department of Pathology, College of Medicine, University of South Florida, Tampa, Fla., and Susan Murphy, PhD, Dept of OB/GYN, Division of GYN Oncology, Duke University, Durham, N.C. (HeyA8, OVCAR2, OVCAR8, and OVCA420). Cell lines were maintained in RPMI-1640 (Invitrogen; Carlsbad, Calif.) supplemented with 10% fetal bovine serum (Fisher Scientific; Pittsburgh, Pa.), 1% sodium pyruvate, 1% penicillin/streptomycin, and 1% nonessential amino acids (HyClone; Hudson, N.H.). Mycoplasma testing was performed every 6 months following manufacturer's protocol (Lonza, Rockland, Me.).
(§2) The MTS assay was used to assess viability of the OVCA cell lines. For the assays, 3-5×10^4 cells in 100 μL were plated to each well of a 96-well plate and allowed to adhere overnight at 37° C. and 5% CO2. The following day, cells were incubated with increasing concentrations of drug for 72 hours. Cell viability was analyzed using the CellTiter96® MTS assay kit (Promega, Madison, Wis.). Three replicate wells were used for each drug concentration, and an additional three control wells received a diluent control without drug. After drug incubation, the optical density of each well was read at 490 nm using a SpectraMax 190 microplate reader (Molecular Devices Inc., Sunnyvale, Calif.). Percent cell survival was expressed as (control-treated)/(control-blank)×100. All experiments were performed three times, or the minimum number of times to ensure reproducibility and accuracy of the results.
The cytotoxic effects of continuous exposure to dasatinib and artesunate were assessed for five OVCA cell lines at 72 hours using the MTS assay (Table 5).

[3] = tested on: HeyA8 OVCA cell; assay: HeyA8 cell proliferation under artesunate
[4] = tested on: HEYA8; assay: MTS cell proliferation/viability assay, 72 hours drug exposure; details: HEY A8, log10 of IC50, uM
Text: as §1, §2

[5] = tested on: OVCA2; assay: as above; details: log10 of IC50, uM
Text: as §1, §2

[6] = tested on: OVCA420; assay: as above; details: OVCA 420, log10 of IC50, uM
Text: as §1, §2

[7] = tested on: A2780S; assay: as above; details: Homo sapiens, log10 of IC50, uM
Text: as §1, §2

[8] = tested on: OVCA8; assay: as above; details: log10 of IC50, uM
Text: as §1, §2

Row | SMILES | ability of cells to migrate into the denuded area / fill in the gap of a scratch test [1] | IC50 ([2]; log10 value, read-out: median IC50 (log 10) (converted)) [nM] | IC50 ([2]; log10 values, read-out: range of IC50 (log 10) (converted)) [nM] | IC50 ([2]; read-out: median IC50) [nM] | IC50 ([2]; read-out: range of IC50) [nM] | anti-proliferative activity against a panel of OVCA cells ([2]; panel of OVCA cells) | decrease of HeyA8 OVCA cell proliferation ([3]; 25 mM artesunate) | decrease of HeyA8 OVCA cell proliferation ([3]; 50 mM artesunate) [%] | IC50 [4] [µM] | IC50 [5] [µM] | IC50 [6] [µM] | IC50 [7] [µM] | IC50 [8] [µM] | IC50 ([2]; read-out: mean IC50) [nM]
1 | C[C@H]1[C@H](OC(=O)CCC(=O)O)O[C@@H]2O[C@@]3(C)CC[C@H]4[C@H](C)CC[C@@H]1[C@@]24OO3 [Artesunate] | impaired the ability of the cells to migrate; also recorded: impaired in their ability to fill in the gap | 4290 | 88.2 to 1290 | 7130 | 1230 to 19300 | anti-proliferative activity | approximately 42% | ~64 | 7.92 | 1.31 | 19.3 | 1.23 | 5.9 | –
2 | Cc1nc(Nc2ncc(C(=O)Nc3c(C)cccc3Cl)s2)cc(N2CCN(CCO)CC2)n1 [Dasatinib] | – | – | – | – | 214 to 953 | – | – | – | 0.215 | 0.953 | 0.431 | 0.918 | 0.37 | 577

From patent US20150302140A1, “IN SILICO IDENTIFICATION OF CANCER MOLECULAR SIGNALING PATHWAYS AND DRUG CANDIDATES” (H. LEE MOFFITT CANCER CENTER AND RESEARCH INSTITUTE, INC., priority 2012, published 2015)
